The target of the assay is T1, Bovine Serum Albumin (BSA) (Bos taurus, UniProt P02769).
T1 construct: gene ALB
Briefly: spectrofluorometric titration (tryptophan fluorescence quenching, double-log Stern-Volmer) at […] and […] °C; Kb given is at […] °C. It is filed as binding. Particulars: read-out: spectrofluorometric titration (tryptophan fluorescence quenching, double-log Ste) (converted).

The results in this text go back to PMC10975498, “Trimethyltin(IV) Bearing 3-(4-Methyl-2-oxoquinolin-1(2H)-yl)propanoate Causes Lipid Peroxidation-Mediated Autophagic Cell Death in Human Melanoma A375 Cells” (Pharmaceuticals, 2024).

T1 sequence (P02769 25-607): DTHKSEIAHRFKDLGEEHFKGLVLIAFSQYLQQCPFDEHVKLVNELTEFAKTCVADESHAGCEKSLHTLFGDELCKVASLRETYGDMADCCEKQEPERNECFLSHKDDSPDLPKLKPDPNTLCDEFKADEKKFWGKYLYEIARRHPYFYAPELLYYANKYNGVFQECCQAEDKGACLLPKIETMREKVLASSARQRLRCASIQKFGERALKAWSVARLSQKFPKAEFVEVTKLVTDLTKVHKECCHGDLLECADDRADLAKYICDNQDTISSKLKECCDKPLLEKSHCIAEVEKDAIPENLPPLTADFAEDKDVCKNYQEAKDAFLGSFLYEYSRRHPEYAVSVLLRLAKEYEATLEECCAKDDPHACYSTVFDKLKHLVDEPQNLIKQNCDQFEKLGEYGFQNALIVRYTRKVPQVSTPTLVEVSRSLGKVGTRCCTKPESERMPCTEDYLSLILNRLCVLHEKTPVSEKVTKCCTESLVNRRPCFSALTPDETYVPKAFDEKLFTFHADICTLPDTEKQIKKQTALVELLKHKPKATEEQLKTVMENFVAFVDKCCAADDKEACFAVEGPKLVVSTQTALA

As for `Cc1cc(=O)n(CCC(=O)[O][Sn]([CH3])([CH3])[CH3])c2ccccc12` [Me3SnL, (3-(4-methyl-2-oxoquinolin-1(2H)-yl)propanoato)trimethyltin(IV)], the Kd is 0.422 µM.
